The first assay deals with T1, human glucagon receptor (Homo sapiens, UniProt P47871).
T1 construct: made in house; host or cells: FreeStyle CHO cells, transient transfection with pMSRαneo/hGCGR; membrane fraction (35,000 rpm pellet)
T1 sequence (P47871 26-477): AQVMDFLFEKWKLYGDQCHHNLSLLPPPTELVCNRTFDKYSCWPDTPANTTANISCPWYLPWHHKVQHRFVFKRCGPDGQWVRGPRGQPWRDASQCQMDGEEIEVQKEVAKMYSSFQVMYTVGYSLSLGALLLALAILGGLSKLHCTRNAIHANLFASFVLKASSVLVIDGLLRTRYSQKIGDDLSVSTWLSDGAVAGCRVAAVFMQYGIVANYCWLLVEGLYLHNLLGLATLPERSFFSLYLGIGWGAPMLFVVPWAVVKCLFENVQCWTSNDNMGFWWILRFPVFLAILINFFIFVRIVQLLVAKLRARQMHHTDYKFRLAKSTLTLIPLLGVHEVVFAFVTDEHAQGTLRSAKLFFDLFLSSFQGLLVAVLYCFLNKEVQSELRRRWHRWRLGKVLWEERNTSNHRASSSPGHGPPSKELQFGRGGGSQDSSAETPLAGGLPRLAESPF
Kind of assay: Glucagon binding inhibitory activity ([125I]-glucagon binding to glucagon receptor membrane protein). Conditions: human glucagon receptor membrane protein, [125I]-glucagon, 90 min room temperature. In short, it runs like this:
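Receptor source was a membrane fraction of transiently transfected CHO cells bearing human receptor; 90 min room-temperature binding, filtration harvest, scintillation counting.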
Usually IC50 stands for the midpoint of a concentration-inhibition curve. The low end stands for greater potency, the high end for weaker potency. `CN(CCC(=O)O)C(=O)c1ccc(NC(c2cn(-c3ccc(OC(F)(F)F)cc3)nc2OCc2ccccc2)C2CCCCC2)cc1` (stereo not drawn) [Example 61, 3-{[(4-{[{3-(benzyloxy)-1-[4-(trifluoromethoxy)phenyl]-1H-pyrazol-4-yl}(cyclohexyl)methyl]amino}phenyl)carbonyl](methyl)amino}-propanoic acid]: the IC50 was 320 nM.

Still in this assay, the particulars now being: test compound 10 μM; 0.4% DMSO = 0%, non-labeled glucagon 1 μM = 100%.
Turning to `Cc1c(C(Nc2ccc(C(=O)N(C)CCC(=O)O)cn2)C2CCCCC2)oc2ccc(F)cc12` (stereo not drawn) [Example A54, 3-{[(6-{[cyclohexyl(5-fluoro-3-methyl-1-benzofuran-2-yl)methyl]amino}pyridin-3-yl)carbonyl](methyl)amino}propanoic acid], the “inhibitory rate (%) at 10 μM” value amounted to 52%.

The assay is the same for the next values; noted with them: test compound 10 μM; 0.4% DMSO = 0%, non-labeled glucagon 1 μM = 100%; read-out: inhibitory rate (%) at 10 μM.
On to `Cc1c(C(Nc2ccc(C(=O)N(C)CCC(=O)O)cc2)C2CCCCC2)oc2c(F)cc(F)cc12` (stereo not drawn) [Example A164, 3-{[(4-{[cyclohexyl(5,7-difluoro-3-methyl-1-benzofuran-2-yl)methyl]amino}phenyl)carbonyl](methyl)amino}propanoic acid], for which the inhibition at 10 µM was 85%. As to `CCOc1cccc(-n2cc(C(Nc3ccc(C(=O)N(C)CCC(=O)O)cc3)C3CCCCC3)c(CC)n2)c1` (stereo not drawn) [Example 83, 3-[{[4-({cyclohexyl[1-(3-ethoxyphenyl)-3-ethyl-1H-pyrazol-4-yl]methyl}amino)phenyl]carbonyl}(methyl)amino]propanoic acid], the inhibition at 10 µM came out at 78%. Same read-out and setting: to `Cc1c(C(Nc2ccc(C(=O)N(C)CCC(=O)O)cc2)C2CCCCC2)oc2ccc(-c3ccccc3)cc12` (stereo not drawn) [Example A176, 3-{[(4-{[cyclohexyl(3-methyl-5-phenyl-1-benzofuran-2-yl)methyl]amino}phenyl)carbonyl](methyl)amino}propanoic acid] belongs 96%; to `O=C(O)CCNC(=O)c1ccc(NC(c2csc3ccccc23)C2CCCCC2)cc1` (stereo not drawn) [Example A1, 3-{[(4-{[1-benzothiophen-3-yl(cyclohexyl)methyl]amino}phenyl)carbonyl]amino}propanoic acid], 76%; to `Cc1c(C(Nc2ccc(C(=O)NCCC(=O)O)cc2)C2CCCCC2)sc2cnccc12` (stereo not drawn) [Example A137, 3-{[(4-{[cyclohexyl(3-methylthieno[2,3-c]pyridin-2-yl)methyl]amino}phenyl)carbonyl]amino}propanoic acid], 75%. For `COc1ccc(-c2ccc3oc(C(Nc4ccc(C(=O)N(C)CCC(=O)O)cc4)C4CCCCC4)c(C)c3c2)cn1` (stereo not drawn) [Example A174, 3-[{[4-({cyclohexyl[5-(6-methoxypyridin-3-yl)-3-methyl-1-benzofuran-2-yl]methyl}amino)phenyl]carbonyl}(methyl)amino]propanoic acid], the inhibition at 10 µM stood at 98%. `COc1ccc2oc(C(Nc3ccc(C(=O)N(C)CCC(=O)O)cc3)C3CCCCC3)c(C#N)c2c1` (stereo not drawn) [Example A109, 3-{[(4-{[(3-cyano-5-methoxy-1-benzofuran-2-yl)(cyclohexyl)methyl]amino}phenyl)carbonyl](methyl)amino}-propanoic acid]: the inhibition at 10 µM was determined as 58%. Still for that read-out and setting: to `CCc1nn(-c2cc(F)cc(F)c2)cc1C(Nc1ccc(C(=O)N(C)CCC(=O)O)cc1)C1CCCCC1` (stereo not drawn) [Example 87, 3-[{[4-({cyclohexyl[1-(3,5-difluorophenyl)-3-ethyl-1H-pyrazol-4-yl]methyl}amino)phenyl]carbonyl}(methyl)amino]propanoic acid] belongs 64%; to `Cc1c(C(Nc2ccc(C(=O)N(C)CCC(=O)O)cc2)C2CCCCC2)oc2ccc(Cl)nc12` (stereo not drawn) [Example A128, 3-{[(4-{[(5-chloro-3-methylfuro[3,2-b]pyridin-2-yl)(cyclohexyl)methyl]amino}phenyl)carbonyl](methyl)amino}-propanoic acid], 83%; to `COCCOCc1c(C(Nc2ccc(C(=O)NCCC(=O)O)cc2)C2CCCCC2)oc2ccc(F)cc12` (stereo not drawn) [Example A132, 3-[({4-[(cyclohexyl{5-fluoro-3-[(2-methoxyethoxy)methyl]-1-benzofuran-2-yl}methyl)amino]phenyl}carbonyl)amino]propanoic acid], 83%. With `CN(CCC(=O)O)C(=O)c1ccc(NC(c2cn(-c3ccc(OC(F)(F)F)cc3)nc2OCc2ccccc2)C2CCCCC2)cc1` (stereo not drawn) [Example 61, 3-{[(4-{[{3-(benzyloxy)-1-[4-(trifluoromethoxy)phenyl]-1H-pyrazol-4-yl}(cyclohexyl)methyl]amino}phenyl)carbonyl](methyl)amino}-propanoic acid], the inhibition at 10 µM turned out to be 75%. In the case of `Cc1c(C(CC(C)C)Nc2ccc(C(=O)NCCC(=O)O)cc2)oc2ccccc12` (stereo not drawn) [Example A23, 3-{[(4-{[3-methyl-1-(3-methyl-1-benzofuran-2-yl)butyl]amino}phenyl)carbonyl]amino}propanoic acid], the inhibition at 10 µM is 77%. On the same count and under the same terms, as for `Cc1nn(-c2ccc(OC(F)(F)F)cc2)cc1C(Nc1ccc(C(=O)N(C)CCC(=O)O)cc1)C1CCCCC1` (stereo not drawn) [Example 26, 3-[({4-[(cyclohexyl{3-methyl-1-[4-(trifluoromethoxy)phenyl]-1H-pyrazol-4-yl}methyl)amino]phenyl}carbonyl)(methyl)amino]propanoic acid], the figure is 72%; as for `CN(CCC(=O)O)C(=O)c1ccc(NC(c2cn(-c3ccccc3)nc2CCc2ccccc2)C2CCCCC2)cc1` (stereo not drawn) [Example 16, 3-[{[4-({cyclohexyl[1-phenyl-3-(2-phenylethyl)-1H-pyrazol-4-yl]methyl}amino)phenyl]carbonyl}(methyl)amino]propanoic acid], 63%. Take `COc1ccc(-n2cc(C(Nc3ccc(C(=O)NCCC(=O)O)cc3)C3CCCCC3)c(C(C)C)n2)cc1` (stereo not drawn) [Example 52, 3-({[4-({cyclohexyl[1-(4-methoxyphenyl)-3-(1-methylethyl)-1H-pyrazol-4-yl]methyl}amino)phenyl]carbonyl}amino)propanoic acid]: the inhibition at 10 µM was 63%. For `Cc1c(C(Nc2ccc(C(=O)N(C)CCC(=O)O)cc2)C2CCCCC2)sc2cc(C(F)(F)F)cnc12` (stereo not drawn) [Example A146, 3-[{[4-({cyclohexyl[3-methyl-6-(trifluoromethyl)thieno[3,2-b]pyridin-2-yl]methyl}amino)phenyl]carbonyl}(methyl)amino]propanoic acid], the inhibition at 10 µM was determined as 77%. In the case of `Cc1ccc2oc(C(Nc3ccc(C(=O)NCCC(=O)O)cc3)C3CCCCC3)c(C)c2c1` (stereo not drawn) [Example A90, 3-{[(4-{[cyclohexyl(3,5-dimethyl-1-benzofuran-2-yl)methyl]amino}phenyl)carbonyl]amino}propanoic acid], the inhibition at 10 µM is 77%. `CCCCCCC(Nc1ccc(C(=O)NCCC(=O)O)cc1)c1cc2cc(Cl)ccc2n1C` (stereo not drawn) [Example A140, 3-{[(4-{[1-(5-chloro-1-methyl-1H-indol-2-yl)heptyl]amino}phenyl)carbonyl]amino}propanoic acid]: the inhibition at 10 µM stood at 83%. Regarding `CCC(CC)C(Nc1ccc(C(=O)N(C)CCC(=O)O)cc1)c1oc2ccc(OC)cc2c1C` (stereo not drawn) [Example A105, 3-{[(4-{[2-ethyl-1-(5-methoxy-3-methyl-1-benzofuran-2-yl)butyl]amino}phenyl)carbonyl](methyl)amino}propanoic acid], the inhibition at 10 µM was 67%. Same read-out and setting: as for `Cc1c(C(Nc2ccc(C(=O)N(C)CCC(=O)O)cc2)C(C)C)oc2cccc(F)c12` (stereo not drawn) [Example A175, 3-{[(4-{[1-(4-fluoro-3-methyl-1-benzofuran-2-yl)-2-methylpropyl]amino}phenyl)carbonyl](methyl)amino}propanoic acid], the figure is 68%; as for `COc1cccc(-n2cc(C(Nc3ccc(C(=O)N(C)CCC(=O)O)cc3)C3CCCCC3)c(C(C)C)n2)c1` (stereo not drawn) [Example 79, 3-[{[4-({cyclohexyl[1-(3-methoxyphenyl)-3-(1-methylethyl)-1H-pyrazol-4-yl]methyl}amino)phenyl]carbonyl}(methyl)amino]propanoic acid], 67%. On to `CN(CCC(=O)O)C(=O)c1ccc(NC(c2cc3ccccc3s2)C2CCCCC2)cc1` (stereo not drawn) [Example A5, 3-{[(4-{[1-benzothiophen-2-yl(cyclohexyl)methyl]amino}phenyl)carbonyl](methyl)amino}-propanoic acid], for which the inhibition at 10 µM came out at 77%. Consider `Cc1c(C(Nc2ccc(C(=O)NCCC(=O)O)cc2)C2CCCCC2)oc2cccc(F)c12` (stereo not drawn) [Example A161, 3-{[(4-{[cyclohexyl(4-fluoro-3-methyl-1-benzofuran-2-yl)methyl]amino}phenyl)carbonyl]amino}propanoic acid], for which the inhibition at 10 µM stood at 84%. For the compound `Cc1c(C(C)Nc2ccc(C(=O)NCCC(=O)O)cc2)oc2ccc(OCc3ccccc3)cc12` (stereo not drawn) [Example A165, 3-({[4-({1-[5-(benzyloxy)-3-methyl-1-benzofuran-2-yl]ethyl}amino)phenyl]carbonyl}amino)propanoic acid], the inhibition at 10 µM turned out to be 85%.

Consider `Cc1nn(-c2ccc(Cl)cc2)cc1C(Nc1ccc(C(=O)NCCC(=O)O)cc1)C1CCCCC1` (stereo not drawn) [Example 19, 3-({[4-({[1-(4-chlorophenyl)-3-methyl-1H-pyrazol-4-yl](cyclohexyl)methyl}amino)phenyl]carbonyl}amino)propanoic acid], for which the inhibition at 10 µM stood at 80%. As for `Cc1c(C(Nc2ccc(C(=O)NCCC(=O)O)cc2)C2CCCC2)sc2ccccc12` (stereo not drawn) [Example A63, 3-{[(4-{[cyclopentyl(3-methyl-1-benzothiophen-2-yl)methyl]amino}phenyl)carbonyl]amino}propanoic acid], the inhibition at 10 µM turned out to be 90%.

For `Cc1c(C(Nc2ccc(C(=O)N(C)CCC(=O)O)cc2)C(C)C)oc2ccc(OC3CCSCC3)cc12` (stereo not drawn) [Example A204, 3-(methyl{[4-({2-methyl-1-[3-methyl-5-(tetrahydro-2H-thiopyran-4-yloxy)-1-benzofuran-2-yl]propyl}amino)phenyl]carbonyl}amino)propanoic acid], the inhibition at 10 µM was 86%. Regarding `COc1ncccc1-c1ccc2oc(C(Nc3ccc(C(=O)N(C)CCC(=O)O)cc3)C(C)C)c(C)c2c1` (stereo not drawn) [Example A183, 3-[{[4-({1-[5-(2-methoxypyridin-3-yl)-3-methyl-1-benzofuran-2-yl]-2-methylpropyl}amino)phenyl]carbonyl}(methyl)amino]propanoic acid], the inhibition at 10 µM was determined as 88%.

For the origin of these results see patent publication US8436043B2 (Takeda Pharmaceutical Company Limited, priority 2008, dated 2013).
